In the supplement of paper PMC10307832 one finds relative viability data, which are given here for 5 compounds.

One test deals with RERF-LC-KJ. As to the kind of experiment: relative viability (nuclei count vs DMSO), 5 days (fraction); higher = more cells survive. Particulars: first compound 2 µM. The gist of the method: (§1)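 A single step with final 0.05% Triton X-100, 1% formaldehyde and 1 ug/ml Hoechst fixed the cells and stained nuclei 5 days after treatment. Lung cancer cell lines in 1536-well plates had been treated by pin tool the day after seeding with one drug alone or a fixed anchor-drug dose plus five library-drug doses (not always all listed) in √10 steps, and nuclei were counted on 4× images. Relative viability is the ratio of nuclei in treated wells to nuclei in vehicle wells, taken as the median of duplicate plates.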
`COCC1(CO)C(=O)C2CCN1CC2` (stereo not given) [PRIMA-1MET] + NC(=O)Nc1cc(-c2cccc(F)c2)sc1C(=O)N[C@H]1CCCNC1 [AZD7762] (partner 0.2 µM) showed a relative viability of 0.928.

Turning to `COCC1(CO)C(=O)C2CCN1CC2` (stereo not given) [PRIMA-1MET] + Nc1nc2[nH]cc(CCc3ccc(C(=O)N[C@@H](CCC(=O)O)C(=O)O)cc3)c2c(=O)[nH]1 [Pemetrexed] (partner 0.2 µM), the relative viability was 0.472.

Consider `COCC1(CO)C(=O)C2CCN1CC2` (stereo not given) [PRIMA-1MET] + CC(=O)Nc1cccc(-n2c(=O)n(C3CC3)c(=O)c3c(Nc4ccc(I)cc4F)n(C)c(=O)c(C)c32)c1 [Trametinib] (partner 0.02 µM), for which the relative viability was 0.821.

Turning to `COCC1(CO)C(=O)C2CCN1CC2` (stereo not given) [PRIMA-1MET] + Nc1ncn([C@H]2C[C@H](O)[C@@H](CO)O2)c(=O)n1 [Decitabine] (partner 2 µM), the relative viability was found to be 0.718.

Still in this test, the particulars now being: first compound 6.325 µM.
Compound `COCC1(CO)C(=O)C2CCN1CC2` (stereo not given) [PRIMA-1MET] + COc1cc2c(Oc3ccc(NC(=O)C4(C(=O)Nc5ccc(F)cc5)CC4)cc3F)ccnc2cc1OCCCN1CCOCC1 [Foretinib] (partner 0.25 µM) showed a relative viability of 0.957.

In the case of `COCC1(CO)C(=O)C2CCN1CC2` (stereo not given) [PRIMA-1MET] + NC(=O)Nc1cc(-c2cccc(F)c2)sc1C(=O)N[C@H]1CCCNC1 [AZD7762] (partner 0.2 µM), the relative viability came out at 1.04.

As to `COCC1(CO)C(=O)C2CCN1CC2` (stereo not given) [PRIMA-1MET] + Nc1nc2[nH]cc(CCc3ccc(C(=O)N[C@@H](CCC(=O)O)C(=O)O)cc3)c2c(=O)[nH]1 [Pemetrexed] (partner 0.2 µM), the relative viability was 0.495.

The compound `COCC1(CO)C(=O)C2CCN1CC2` (stereo not given) [PRIMA-1MET] + CC(=O)Nc1cccc(-n2c(=O)n(C3CC3)c(=O)c3c(Nc4ccc(I)cc4F)n(C)c(=O)c(C)c32)c1 [Trametinib] (partner 0.02 µM) showed a relative viability of 0.951.

Consider `COCC1(CO)C(=O)C2CCN1CC2` (stereo not given) [PRIMA-1MET] + Nc1ncn([C@H]2C[C@H](O)[C@@H](CO)O2)c(=O)n1 [Decitabine] (partner 2 µM), for which the relative viability is 0.69.

The same test, now with this note: first compound 20 µM.
`COCC1(CO)C(=O)C2CCN1CC2` (stereo not given) [PRIMA-1MET] + COc1cc2c(Oc3ccc(NC(=O)C4(C(=O)Nc5ccc(F)cc5)CC4)cc3F)ccnc2cc1OCCCN1CCOCC1 [Foretinib] (partner 0.25 µM): the relative viability stood at 0.819.

Consider `COCC1(CO)C(=O)C2CCN1CC2` (stereo not given) [PRIMA-1MET] + NC(=O)Nc1cc(-c2cccc(F)c2)sc1C(=O)N[C@H]1CCCNC1 [AZD7762] (partner 0.2 µM), for which the relative viability stood at 0.978.

With `COCC1(CO)C(=O)C2CCN1CC2` (stereo not given) [PRIMA-1MET] + Nc1nc2[nH]cc(CCc3ccc(C(=O)N[C@@H](CCC(=O)O)C(=O)O)cc3)c2c(=O)[nH]1 [Pemetrexed] (partner 0.2 µM), the relative viability is 0.472.

Compound `COCC1(CO)C(=O)C2CCN1CC2` (stereo not given) [PRIMA-1MET] + CC(=O)Nc1cccc(-n2c(=O)n(C3CC3)c(=O)c3c(Nc4ccc(I)cc4F)n(C)c(=O)c(C)c32)c1 [Trametinib] (partner 0.02 µM) returned a relative viability of 0.826.

As to `COCC1(CO)C(=O)C2CCN1CC2` (stereo not given) [PRIMA-1MET] + Nc1ncn([C@H]2C[C@H](O)[C@@H](CO)O2)c(=O)n1 [Decitabine] (partner 2 µM), the relative viability is 0.595.

Another test deals with NCI-H1355. The test is described as above. Particulars: first compound 0.2 µM. The gist of the method: as §1
`COCC1(CO)C(=O)C2CCN1CC2` (stereo not given) [PRIMA-1MET] + COc1cc2c(Oc3ccc(NC(=O)C4(C(=O)Nc5ccc(F)cc5)CC4)cc3F)ccnc2cc1OCCCN1CCOCC1 [Foretinib] (partner 0.25 µM) came in with a relative viability of 1.02.

`COCC1(CO)C(=O)C2CCN1CC2` (stereo not given) [PRIMA-1MET] + NC(=O)Nc1cc(-c2cccc(F)c2)sc1C(=O)N[C@H]1CCCNC1 [AZD7762] (partner 0.2 µM) displayed a relative viability of 0.887.

As for `COCC1(CO)C(=O)C2CCN1CC2` (stereo not given) [PRIMA-1MET] + Nc1nc2[nH]cc(CCc3ccc(C(=O)N[C@@H](CCC(=O)O)C(=O)O)cc3)c2c(=O)[nH]1 [Pemetrexed] (partner 0.2 µM), the relative viability is 1.02.

The compound `COCC1(CO)C(=O)C2CCN1CC2` (stereo not given) [PRIMA-1MET] + CC(=O)Nc1cccc(-n2c(=O)n(C3CC3)c(=O)c3c(Nc4ccc(I)cc4F)n(C)c(=O)c(C)c32)c1 [Trametinib] (partner 0.02 µM) gave a relative viability of 0.393.

With `COCC1(CO)C(=O)C2CCN1CC2` (stereo not given) [PRIMA-1MET] + Nc1ncn([C@H]2C[C@H](O)[C@@H](CO)O2)c(=O)n1 [Decitabine] (partner 2 µM), the relative viability turned out to be 0.366.

The same test, now with this note: first compound 0.6325 µM.
`COCC1(CO)C(=O)C2CCN1CC2` (stereo not given) [PRIMA-1MET] + COc1cc2c(Oc3ccc(NC(=O)C4(C(=O)Nc5ccc(F)cc5)CC4)cc3F)ccnc2cc1OCCCN1CCOCC1 [Foretinib] (partner 0.25 µM) gave a relative viability of 0.846.

Compound `COCC1(CO)C(=O)C2CCN1CC2` (stereo not given) [PRIMA-1MET] + NC(=O)Nc1cc(-c2cccc(F)c2)sc1C(=O)N[C@H]1CCCNC1 [AZD7762] (partner 0.2 µM) showed a relative viability of 0.61.

On to `COCC1(CO)C(=O)C2CCN1CC2` (stereo not given) [PRIMA-1MET] + Nc1nc2[nH]cc(CCc3ccc(C(=O)N[C@@H](CCC(=O)O)C(=O)O)cc3)c2c(=O)[nH]1 [Pemetrexed] (partner 0.2 µM), for which the relative viability worked out at 0.985.

The compound `COCC1(CO)C(=O)C2CCN1CC2` (stereo not given) [PRIMA-1MET] + CC(=O)Nc1cccc(-n2c(=O)n(C3CC3)c(=O)c3c(Nc4ccc(I)cc4F)n(C)c(=O)c(C)c32)c1 [Trametinib] (partner 0.02 µM) displayed a relative viability of 0.462.

`COCC1(CO)C(=O)C2CCN1CC2` (stereo not given) [PRIMA-1MET] + Nc1ncn([C@H]2C[C@H](O)[C@@H](CO)O2)c(=O)n1 [Decitabine] (partner 2 µM): the relative viability worked out at 0.347.

Staying with this test, now noted: first compound 2 µM.
As to `COCC1(CO)C(=O)C2CCN1CC2` (stereo not given) [PRIMA-1MET] + COc1cc2c(Oc3ccc(NC(=O)C4(C(=O)Nc5ccc(F)cc5)CC4)cc3F)ccnc2cc1OCCCN1CCOCC1 [Foretinib] (partner 0.25 µM), the relative viability is 1.01.

`COCC1(CO)C(=O)C2CCN1CC2` (stereo not given) [PRIMA-1MET] + NC(=O)Nc1cc(-c2cccc(F)c2)sc1C(=O)N[C@H]1CCCNC1 [AZD7762] (partner 0.2 µM) yielded a relative viability of 0.702.

For `COCC1(CO)C(=O)C2CCN1CC2` (stereo not given) [PRIMA-1MET] + Nc1nc2[nH]cc(CCc3ccc(C(=O)N[C@@H](CCC(=O)O)C(=O)O)cc3)c2c(=O)[nH]1 [Pemetrexed] (partner 0.2 µM), the relative viability amounted to 1.

For `COCC1(CO)C(=O)C2CCN1CC2` (stereo not given) [PRIMA-1MET] + CC(=O)Nc1cccc(-n2c(=O)n(C3CC3)c(=O)c3c(Nc4ccc(I)cc4F)n(C)c(=O)c(C)c32)c1 [Trametinib] (partner 0.02 µM), the relative viability worked out at 0.444.

In the case of `COCC1(CO)C(=O)C2CCN1CC2` (stereo not given) [PRIMA-1MET] + Nc1ncn([C@H]2C[C@H](O)[C@@H](CO)O2)c(=O)n1 [Decitabine] (partner 2 µM), the relative viability is 0.338.

Still in this test, the particulars now being: first compound 6.325 µM.
On to `COCC1(CO)C(=O)C2CCN1CC2` (stereo not given) [PRIMA-1MET] + COc1cc2c(Oc3ccc(NC(=O)C4(C(=O)Nc5ccc(F)cc5)CC4)cc3F)ccnc2cc1OCCCN1CCOCC1 [Foretinib] (partner 0.25 µM), for which the relative viability turned out to be 1.01.
